These results are taken from patent EP4653437A2 (Innovo Therapeutics Inc., priority 2023, dated 2024).

In one test the target is T1, human 15-PGDH (Homo sapiens, UniProt P15428).
T1 construct: purchased R&D System 5660-DH
T1 sequence (P15428 1-266): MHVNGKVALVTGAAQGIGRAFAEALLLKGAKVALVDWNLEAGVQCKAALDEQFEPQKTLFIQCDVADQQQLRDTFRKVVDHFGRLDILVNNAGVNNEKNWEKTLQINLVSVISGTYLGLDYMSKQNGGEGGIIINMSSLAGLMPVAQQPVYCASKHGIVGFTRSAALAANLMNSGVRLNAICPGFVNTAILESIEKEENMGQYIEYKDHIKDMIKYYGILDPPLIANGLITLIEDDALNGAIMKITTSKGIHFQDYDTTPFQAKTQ
As to the kind of experiment: Evaluation of 15-PGDH inhibitory activity (fluorescence enzyme assay, NAD+/PGE2). It is filed as biochemical. The note with it: human 15-PGDH enzyme, fluorescence Vmax. Here is the method: 15-PGDH inhibition activity of Example compounds was measured as follows. 6.7 ng of human 15-PGDH (R&D System# 5660-DH) enzyme (10 µL) was added to a black 96 well plate, 60 µL of buffer (50 mM Tris-HCl, pH 7.5, 0.01% Tween 20) was added, and 10 µL of 200 µM β-Nicotinamide adenine dinucleotide sodium salt (Sigma, Cat# N0632-5G) was added. 10 µL of (10x) compound solution in DMSO was added and reacted for 10 minutes at room temperature.

Another test deals with A549 cells. Kind of test: Measurement of PGE2-increasing activity in A549 cells (IL-1β stimulated, PGE2 quantified in supernatant). Type of test: cell-based. The note with it: Homo sapiens, 24 h; concentration of 1 µM of each compound; IL-1β treated A549 cells; read-out: Increased PGE2 production in A549 cells. The method in brief:
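A549 cells grown 24 h in F12K with 10% FBS, then switched to serum-free medium with or without IL-1β and compound (0.1% DMSO final). After 24 h at 37 °C, 5% CO2, supernatant PGE2 quantified by immunoassay.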

Usually IC50 stands for the concentration that inhibits the measured activity by half. Turning to `Cc1cnc(-c2ccc(-c3cccc4c(C(=O)N5CCCCC5)cnn34)cc2)s1` [Example 351, [7-[4-(5-methylthiazol-2-yl)phenyl]pyrazolo[1,5-a]pyridin-3-yl]-(1-piperidyl)methanone], the IC50 on human 15-PGDH is at most 100 nM. In addition, in the test on A549 cells, the fold induction at 1 µM was above 1.5.
In turn, `O=C(c1cnn2c(-c3ccc(-c4ccsc4)cc3)cccc12)N1CCCCC1` [Example 347, 1-piperidyl-[7-[4-(3-thienyl)phenyl]pyrazolo[1,5-a]pyridin-3-yl]methanone] yielded an IC50 against human 15-PGDH of at most 100 nM. The fold induction at 1 µM with A549 cells was below 1.5.
For the compound `O=C(c1cnn2c(-c3ccc(F)nc3F)cccc12)N1CCCCC1` [Example 266, (7-(2,6-difluoropyridin-3-yl)pyrazolo[1,5-a]pyridin-3-yl)(piperidin-1-yl)methanone], at human 15-PGDH, the IC50 was at most 100 nM. For the same compound, the fold induction at 1 µM with A549 cells is above 1.5.
In turn, `O=C1NCc2ccc(-c3cccc4c(C(=O)N5CCCCC5)cnn34)cc21` [Example 140, 6-(3-(piperidine-1-carbonyl)pyrazolo[1,5-a]pyridin-7-yl)isoindolin-1-one] yielded an IC50 at human 15-PGDH of at most 100 nM. In addition, the fold induction at 1 µM in the test with A549 cells is above 1.5.
As to `Cc1nc(-c2cc(F)cc(-c3cccc4c(C(=O)N5CCCCC5)cnn34)c2)no1` [Example 322, (7-(3-fluoro-5-(5-methyl-1,2,4-oxadiazol-3-yl)phenyl)pyrazolo[1,5-a]pyridin-3-yl)(piperidin-1-yl)methanone], the IC50 at human 15-PGDH was at most 100 nM. The fold induction at 1 µM in the test with A549 cells is above 1.5.
Consider `O=C(Nc1cncc(-c2cccc3c(C(=O)N4CCCCC4)cnn23)c1)c1cncnc1` [Example 334, N-(5-(3-(piperidine-1-carbonyl)pyrazolo[1,5-a]pyridin-7-yl)pyridin-3-yl)pyrimidine-5-carboxamide], for which the IC50 on human 15-PGDH is at most 100 nM. Also, the fold induction at 1 µM with A549 cells was above 1.5.
`O=C1NCc2ncc(-c3cccc4c(C(=O)N5CCCCC5)cnn34)cc21` [Example 232, 3-(3-(piperidine-1-carbonyl)pyrazolo[1,5-a]pyridin-7-yl)-6,7-dihydro-5H-pyrrolo[3,4-b]pyridin-5-one] had an IC50 against human 15-PGDH of at most 100 nM. Further, the fold induction at 1 µM in the test on A549 cells is above 1.5.
As for `Cc1noc(C)c1-c1ncc(-c2cccc3c(C(=O)N4CCCCC4)cnn23)cn1` [Example 399, [7-[2-(3,5-dimethylisoxazol-4-yl)pyrimidin-5-yl]pyrazolo[1,5-a]pyridin-3-yl]-(1-piperidyl)methanone], on human 15-PGDH, the IC50 is at most 100 nM. Besides, the fold induction at 1 µM in the test with A549 cells was above 1.5.
At human 15-PGDH, `Cc1nc(-c2cncc(-c3cccc4c(C(=O)N5CCCCC5)cnn34)c2)no1` [Example 319, (7-(5-(5-methyl-1,2,4-oxadiazol-3-yl)pyridin-3-yl)pyrazolo[1,5-a]pyridin-3-yl)(piperidin-1-yl)methanone] yielded an IC50 of at most 100 nM. In the test with A549 cells, the fold induction at 1 µM was above 1.5.
The compound `O=C(c1cnn2c(-c3cnc(F)c(F)c3)cccc12)N1CCCCC1` [Example 288, (7-(5,6-difluoropyridin-3-yl)pyrazolo[1,5-a]pyridin-3-yl)(piperidin-1-yl)methanone] displayed an IC50 against human 15-PGDH of at most 100 nM. Besides, the fold induction at 1 µM in the test on A549 cells was above 1.5.
On to `COc1noc2ccc(-c3cccc4c(C(=O)N5CCCCC5)cnn34)cc12` [Example 269, (7-(3-methoxybenzo[d]isoxazol-5-yl)pyrazolo[1,5-a]pyridin-3-yl)(piperidin-1-yl)methanone], for which the IC50 on human 15-PGDH was at most 100 nM. For the same compound, in the test on A549 cells, the fold induction at 1 µM was above 1.5.
In the case of `O=C(c1cccc(-c2cccc3c(C(=O)N4CCCCC4)cnn23)c1)N1CCC1` [Example 29, azetidin-1-yl(3-(3-(piperidine-1-carbonyl)pyrazolo[1,5-a]pyridin-7-yl)phenyl)methanone], the half-inhibitory concentration (IC50) against human 15-PGDH was at most 100 nM. Moreover, the fold induction at 1 µM in the test on A549 cells was above 1.5.
Consider `O=C(c1cnn2c(-c3cccc(C=NO)c3)cccc12)N1CCCCC1` [Example 253, 3-(3-(piperidine-1-carbonyl)pyrazolo[1,5-a]pyridin-7-yl)benzaldehyde oxime], for which the IC50 against human 15-PGDH was at most 100 nM. For the same compound, the fold induction at 1 µM in the test with A549 cells was above 1.5.
Taken in the same sequence, the figures for `Cc1nc(-c2ncc(-c3cccc4c(C(=O)N5CCCCC5)cnn34)cc2F)no1` [Example 263, [7-[5-fluoro-6-(5-methyl-1,2,4-oxadiazol-3-yl)-3-pyridyl]pyrazolo[1,5-a]pyridin-3-yl]-(1-piperidyl)methanone] were at most 100 nM and above 1.5.
Compound `O=C(c1cnn2c(-c3cc(F)ncc3Cl)cccc12)N1CCCCC1` [Example 298, (7-(5-chloro-2-fluoropyridin-4-yl)pyrazolo[1,5-a]pyridin-3-yl)(piperidin-1-yl)methanone] yielded an IC50 on human 15-PGDH of at most 100 nM. For the same compound, the fold induction at 1 µM in the test with A549 cells was above 1.5.
Taken in the same sequence, the figures for `O=C(c1cnn2c(-c3ccc(-c4noc(=O)[nH]4)nc3)cccc12)N1CCCCC1` [Example 117, 3-(5-(3-(piperidine-1-carbonyl)pyrazolo[1,5-a]pyridin-7-yl)pyridin-2-yl)-1,2,4-oxadiazol-5(4H)-one] were at most 100 nM and above 1.5.
Taken in the same sequence, the figures for `Cn1cnc2ncc(-c3cccc4c(C(=O)N5CCCCC5)cnn34)cc2c1=O` [Example 255, 3-methyl-6-(3-(piperidine-1-carbonyl)pyrazolo[1,5-a]pyridin-7-yl)pyrido[2,3-d]pyrimidin-4(3H)-one] were at most 100 nM and above 1.5.
For `CN1CCC(NC(=O)c2cncc(-c3cccc4c(C(=O)N5CCCCC5)cnn34)c2)CC1` [Example 47, N-(1-methylpiperidin-4-yl)-5-(3-(piperidine-1-carbonyl)pyrazolo [1,5-a]pyridin-7-yl)nicotinamide], the IC50 at human 15-PGDH was at most 100 nM. Further, in the test with A549 cells, the fold induction at 1 µM is above 1.5.
Taken in the same sequence, the figures for `O=C(c1cnn2c(-c3ccnc(N4CC(F)C4)c3)cccc12)N1CCCCC1` [Example 257, (7-(2-(3-fluoroazetidin-1-yl)pyridin-4-yl)pyrazolo[1,5-a]pyridin-3-yl)(piperidin-1-yl)methanone] were at most 100 nM and below 1.5.
`O=C(c1cnn2c(-c3ccc(N4CCOC4=O)nc3)cccc12)N1CCCC(F)(F)C1` [Example 384, 3-(5-(3-(3,3-difluoropiperidine-1-carbonyl)pyrazolo[1,5-a]pyridin-7-yl)pyridin-2-yl)oxazolidin-2-one] returned an IC50 against human 15-PGDH of at most 100 nM. Further, in the test on A549 cells, the fold induction at 1 µM is above 1.5.
Taken in the same sequence, the figures for `CN(C)c1ncc(-c2cccc3c(C(=O)N4CCCCC4)cnn23)cc1C#N` [Example 270, 2-(dimethylamino)-5-(3-(piperidine-1-carbonyl)pyrazolo[1,5-a]pyridin-7-yl)nicotinonitrile] were at most 100 nM and above 1.5.
Turning to `O=C(c1cnn2c(-c3ccc(N4CC(CO)C4)nc3)cccc12)N1CCCCC1` [Example 221, (7-(6-(3-(hydroxymethyl)azetidin-1-yl)pyridin-3-yl)pyrazolo[1,5-a]pyridin-3-yl)(piperidin-1-yl)methanone], the IC50 at human 15-PGDH was at most 100 nM. Besides, the fold induction at 1 µM with A549 cells is above 1.5.
In turn, `N#Cc1ccc(-c2cccc3c(C(=O)N4CCCCC4)cnn23)cn1` [Example 18, 5-(3-(piperidine-1-carbonyl)pyrazolo[1,5-a]pyridin-7-yl)picolinonitrile] had an IC50 against human 15-PGDH of at most 100 nM. Further, in the test with A549 cells, the fold induction at 1 µM is above 1.5.
Taken in the same sequence, the figures for `O=C(Nc1ccncc1)c1ccc(-c2cccc3c(C(=O)N4CCCCC4)cnn23)cn1` [Example 88, 5-(3-(piperidine-1-carbonyl)pyrazolo[1,5-a]pyridin-7-yl)-N-(pyridin-4-yl)picolinamide] were at most 100 nM and above 1.5.
Taken in the same sequence, the figures for `O=C(c1cnn2c(-c3ccc4c(=O)[nH]ccc4c3)cccc12)N1CCCCC1` [Example 138, 6-(3-(piperidine-1-carbonyl)pyrazolo[1,5-a]pyridin-7-yl)isoquinolin-1(2H)-one] were at most 100 nM and above 1.5.
Taken in the same sequence, the figures for `CNC(=O)c1ccc(-c2cccc3c(C(=O)N4CCCCC4)cnn23)cn1` [Example 75, N-methyl-5-(3-(piperidine-1-carbonyl)pyrazolo[1,5-a]pyridin-7-yl)picolinamide] were at most 100 nM and above 1.5.
At human 15-PGDH, `N#CCCNC(=O)c1ccc(-c2cccc3c(C(=O)N4CCCCC4)cnn23)cn1` [Example 85, N-(2-cyanoethyl)-5-(3-(piperidine-1-carbonyl)pyrazolo[1,5-a]pyridin-7-yl)picolinamide] showed an IC50 of at most 100 nM. Besides, the fold induction at 1 µM with A549 cells was above 1.5.
Taken in the same sequence, the figures for `CC(C)C1CCCN(C(=O)c2cnn3c(-c4ccc5c(c4)C(=O)NC5)cccc23)C1` (stereo not shown) [Example 400, 6-(3-(3-isopropylpiperidine-1-carbonyl)pyrazolo[1,5-a]pyridin-7-yl)isoindolin-1-one] were at most 100 nM and above 1.5.
For the compound `O=C(Cc1cccnc1)Nc1cncc(-c2cccc3c(C(=O)N4CCCCC4)cnn23)c1` [Example 327, N-(5-(3-(piperidine-1-carbonyl)pyrazolo[1,5-a]pyridin-7-yl)pyridin-3-yl)-2-(pyridin-3-yl)acetamide], at human 15-PGDH, the IC50 is at most 100 nM. Further, the fold induction at 1 µM in the test with A549 cells is above 1.5.
